{"source": "patent US11510925B2", "about": "“Methods and therapeutics to regulate hydrogen sulfide bioavailability” (Board of Supervisors of Louisiana State University and …, priority 2018, dated 2022)", "assay_type_in_all_cases": "cell-based, human", "key": {"[1]": {"system": "ATR cells", "experiment": "Free cellular H2S measurement by HPLC after MBB derivatization, ATR cells", "procedure": "(§1) Cells: The human colon cancer cell line DLD1 cell line containing wild-type ATR (ATR cells) or the ATR-Seckel knock-in hypomorphic mutation (ATR-H cells) were a kind gift from Dr. Fred Bunz of the Department of Radiation Oncology and Molecular Radiation Sciences, The Johns Hopkins University School of Medicine. The cells were cultured in DMEM with 5% FBS, 1% penicillin/streptomycin.\n(§2) H2S measurements: Bioavailable sulfide levels were measured as previously reported. Levels of free sulfide (H2S) in ATR and ATR-H cells were measured by high performance liquid chromatography (HPLC) after derivatization with excess MBB as stable products sulfide-dibimane (SDB). Briefly, ATR and ATR-H cells were homogenized in Tris.HCl buffer [100 mM Tris.HCl (pH 9.5) and 0.1 mM diethylenetriaminepentaacetic acid (DTPA)]. Cell lysates were derivatized with MBB and then measured by Shimadzu Prominence 20 A equipment with RF-10AXL (excitation wavelength: […] and emission wavelength: […]) and an Eclipse XDB-C18 column (4.6×50 mm, 5 μm). Typical retention times of SDB were 16.5 min. H2S levels were calculated according to the standard SDB."}, "[2]": {"system": "ATR-H cells", "experiment": "Free cellular H2S measurement by HPLC after MBB derivatization, ATR-H cells", "procedure": "as §1, §2"}, "[3]": {"system": "DLD1 cell line containing wild-type ATR (ATR cells)", "experiment": "Colony forming-efficiency assay, ATR wild-type cells", "conditions": "11 days; for sensitivity of colony formation to t-BOOH after H2S inhibitor pretreatment: 2 h 1 mM β-cyano-l-alanine, then 15 min 50, 100 or 200 μM t-BOOH", "procedure": "as §1\n(§3) Colony forming-efficiency assay: Colony forming-efficiency (CEFA) experiments were performed. In brief, exponentially growing cells were plated for 12 h at 2000 cells/100 mm tissue culture dish in 10 ml appropriate media. The cells were pretreated for 2 h with either an H2S inhibitor (β-cyano-1-alanine, 1 mM) or donor (diallyl trisulfide, 20 uM), washed 3× with 1× phospate buffered saline, the media replaced, and the cells were immediately treated with for 15 min with 50, 100, and 200 μM t-butyl hydroperoxide (t-BOOH). Following treatment, the cells were washed 3× with phosphate-buffered saline, the media replaced and the cells cultured for 11 days. The resulting colonies were fixed and stained by water: methanol addition (1:1) containing crystal violet (1 g/l). “Colonies” consisted of cell clusters containing greater than 50 cells when counted by dissecting microscopy."}, "[4]": {"system": "DLD1 cell line containing the ATR-Seckel knock-in hypomorphic mutation (ATR-H cells)", "experiment": "Colony forming-efficiency assay, ATR-H cells", "procedure": "as §1, §3"}, "[5]": {"system": "ATR-pS435 in ATR cells", "experiment": "Western blot of ATR serine 435 phosphorylation, ATR cells", "procedure": "as §1\n(§4) Western blotting: To prepare whole cell lysates from ATR and ATR-H cells, the cells were grown in 6-well plates, the medium was removed, and 300 μl of SDS sample buffer (62.5 mM Tris-HCl (pH 6.8), 2% w/v SDS, 10% glycerol, 50 mM dithiothreitol, 0.1% w/v bromphenol blue) was added to each well. Following lysis in SDS sample buffer, lysates were harvested with cell scrapers and collected in Eppendorf tubes. The lysates were boiled, centrifuged, and frozen at −20° C. until gel electrophoresis was performed. The protein concentrations were measured by Bio-rad DC protein assay. Twenty […] of total protein supernatant extract was mixed with 2×SDS loading buffer according to protein concentration. Lysates separated by SDS-PAGE were transferred to polyvinylidene difluoride membranes, and membranes were blocked in 5% nonfat dry milk before the addition of primary antibodies. Densitometry was performed with ImageJ software version 1.45 s. All western blots were performed at least in triplicate."}, "[6]": {"system": "ATR-pS435 in ATR-H cells", "experiment": "Western blot of ATR serine 435 phosphorylation, ATR-H cells", "procedure": "as §1, §4"}, "[7]": {"system": "CHK1 serine-345 phosphorylation in ATR cells", "experiment": "Western blot of CHK1 serine 345 phosphorylation, ATR cells", "procedure": "as §1, §4"}, "[8]": {"system": "ATR-H cells", "experiment": "dsDNA breaks in metaphase chromosomal preparations, ATR-H cells", "procedure": "as §1\n(§5) Chromosomal preparation and analysis: One 100-mm tissue culture plate/treatment of logarithmically growing ATR and ATR-H cells at 50% confluence were treated with or without, 1 mM H2S inhibitor β-cyano-l-alanine for two hours, followed by a 15-minute treatment with 10 μM t-BOOH. Following this treatment, the cells were washed 3× with phosphate-buffered saline, the media replaced, and the cells cultured for 1 h. Colcemid (100 ng/ml) was then added for 4 h and the cells harvested by washing 2× in 1×PBS, followed by trypsinization and transference to a 15 ml tube. Two-ml of DMEM with 5% FBS was added/tube and the cells were pelleted 5 min at 500×g. The cells were re-suspended in 5 ml […] and incubated 15 min at 37° C. About 200 μl of fresh methanol: glacial acetic acid at 3:1 (Carnoy's fixative) was added, the cells gently vortexed, and pelleted for 5 min at 500×g. The supernatant was removed and 5 ml of Carnoy's fixative added with gentle vortexing. The cells were pelleted for 5 min at 500×g, the supernatant removed, and 5 ml of Carnoy's fixative was added with gentle vortexing. Chromosomal preparations were made by pelleting the preparations for 5 min at 500×g, removing the supernatant, dropping on slides, drying for 30 min at 90° C., Giemsa staining, washing, and cover-slipping. Each data point represents 5000 individual chromosomal observations preformed under oil immersion microscopy done in triplicate."}, "[9]": {"system": "CHK1 serine-345 phosphorylation in ATR-H cells", "experiment": "Western blot of CHK1 serine 345 phosphorylation, ATR-H cells", "conditions": "2 h 1 mM β-cyano-l-alanine with or without 15 min 10 μM t-BOOH", "procedure": "as §1, §4"}, "[10]": {"system": "ATR cells", "experiment": "dsDNA breaks in metaphase chromosomal preparations, ATR cells", "conditions": "2 h 1 mM β-cyano-l-alanine followed by 10 μM t-BOOH", "procedure": "as §1\nas §5, with “The cells were pelleted for 5 min at 500×g, the supernatant removed, and 5 ml of Carnoy's fixative was added with gentle vortexing. Chromosomal preparations were made by pelleting the preparations for 5 min at 500×g, removing the supernatant, dropping on slides, drying for 30 min at 90° C., Giemsa staining, washing, and cover-slipping. Each data point represents 5000 individual chromosomal observations preformed under oil immersion microscopy done in triplicate.” left out"}, "[11]": {"conditions": "ATR wild-type cells, 2 h 1 mM β-cyano-l-alanine"}}, "data": [{"compound": "Nc1nc(N)c(N=O)c(OCC2CCCCC2)n1", "note": "[NU6027]", "values": [{"measurement": "cellular free H2S concentration", "setting": "[1]; 2 h 12 μM NU6027", "result": "significantly decreased"}, {"measurement": "cellular free H2S concentration", "setting": "[2]; 2 h 12 μM NU6027", "result": "but not the ATR-H cells"}]}, {"compound": "C=CCSSSCC=C", "note": "[diallyl trisulfide]", "values": [{"measurement": "colony formation, H2S donor pretreatment", "setting": "[3]; 2 h 20 μM diallyl trisulfide", "result": "significantly decreased"}, {"measurement": "colony formation, H2S donor pretreatment", "setting": "[4]; 2 h 20 μM diallyl trisulfide, 11 days", "result": "significantly decreased"}, {"measurement": "cellular free H2S concentration", "setting": "[1]; 2 h 20 μM diallyl trisulfide", "result": "suppressed"}, {"measurement": "ATR-pS435 level", "setting": "[5]; ATR wild-type cells, 2 h 20 μM diallyl trisulfide", "result": "inhibited this phosphorylation"}, {"measurement": "ATR-pS435 level", "setting": "[6]; 2 h 20 μM diallyl trisulfide", "result": "not affected by any treatment"}, {"measurement": "CHK1 serine-345 phosphorylation after t-BOOH, H2S donor pretreatment", "setting": "[7]; ATR wild-type cells, H2S donor pretreatment, then t-BOOH", "result": "did not significantly alter"}]}, {"compound": "CC(C)(C)OO", "note": "[t-BOOH, t-butyl hydroperoxide]", "values": [{"measurement": "colony formation suppression by t-BOOH", "setting": "[3]; 15 min 50, 100 or 200 μM t-BOOH", "result": "colony formation suppression was t-BOOH dose-dependent"}, {"measurement": "colony formation suppression by t-BOOH", "setting": "[4]; 15 min 50, 100 or 200 μM t-BOOH, 11 days", "result": "colony formation suppression was t-BOOH dose-dependent"}, {"measurement": "induction of ATR-pS435 levels", "setting": "[5]; ATR wild type cells, 100 μM t-BOOH 15 min, then 45 min in media", "result": "~50", "unit": "%"}, {"measurement": "ATR-pS435 level", "setting": "[6]; 100 μM t-BOOH 15 min, then 45 min in media", "result": "not increased"}, {"measurement": "dsDNA break formation", "setting": "[8]; 15 min 10 μM t-BOOH alone", "result": "significantly increased dsDNA break formation"}]}, {"compound": "N#CC[C@H](N)C(=O)O", "note": "[β-cyano-l-alanine]", "values": [{"measurement": "sensitivity of colony formation to t-BOOH after H2S inhibitor pretreatment", "setting": "[3]", "result": "slightly increased the sensitivity of the ATR cells"}, {"measurement": "sensitivity of colony formation to t-BOOH after H2S inhibitor pretreatment", "setting": "[3]; listed as H2S inhibitor", "result": "only significantly potentiated t-BOOH toxicity at the two higher doses"}, {"measurement": "colony formation, H2S inhibitor pretreatment with 200 μM t-BOOH versus 200 μM t-BOOH alone", "setting": "[4]; 200 μM t-BOOH", "result": "not significantly different"}, {"measurement": "colony formation, H2S inhibitor by itself", "setting": "[4]; 2 h 1 mM β-cyano-l-alanine, no t-BOOH, 11 days", "result": "suppressed ATR-H cell colony formation"}, {"measurement": "sensitivity of colony formation to t-BOOH after H2S inhibitor pretreatment", "setting": "[4]; 2 h 1 mM β-cyano-l-alanine, then 15 min 50, 100 or 200 μM t-BOOH, 11 days, compared to ATR wild-type cells", "result": "significantly more sensitive to the same t-BOOH exposures"}, {"measurement": "cellular free H2S concentration", "setting": "[1]; 2 h 1 mM β-cyano-l-alanine", "result": "significantly lowered"}, {"measurement": "cellular free H2S concentration", "setting": "[2]; 2 h 1 mM β-cyano-l-alanine", "result": "significantly lowered"}, {"measurement": "ATR-pS435 level", "setting": "[5]; [11]", "result": "increased ATR-pS435"}, {"measurement": "increase of ATR-pS435 compared to untreated cell phosphorylation levels", "setting": "[5]; [11]", "result": "~50", "unit": "%"}, {"measurement": "ATR-pS435 level", "setting": "[6]; 2 h 1 mM β-cyano-l-alanine", "result": "not affected by any treatment"}, {"measurement": "CHK1 serine-345 phosphorylation after t-BOOH, with versus without H2S inhibitor pretreatment", "setting": "[7]; ATR cells, 2 h 1 mM β-cyano-l-alanine, then 15 min 10 μM t-BOOH, harvest at 45 min", "result": "significantly increased"}, {"measurement": "CHK1 serine-345 phosphorylation level changes", "setting": "[9]", "result": "failed to show significant CHK1 serine-345 phosphorylation level changes"}, {"measurement": "dsDNA breaks", "setting": "[10]", "result": "significantly increased dsDNA breaks"}, {"measurement": "dsDNA breaks", "setting": "[8]; 1 mM β-cyano-l-alanine alone", "result": "significantly increased dsDNA breaks"}, {"measurement": "dsDNA breaks", "setting": "[8]; 2 h 1 mM β-cyano-l-alanine followed by 10 μM t-BOOH", "result": "significantly increased dsDNA breaks"}]}]}
